In ChEMBL document CHEMBL4706623, “GPR52 Antagonist Reduces Huntingtin Levels and Ameliorates Huntington's Disease-Related Phenotypes” (J Med Chem, 2021):

Target: G-protein coupled receptor 52 (Homo sapiens, UniProt Q9Y2T5)
Test: Antagonist activity at GPR52 (unknown origin) expressed in HEK293 cells assessed as inhibition of WO459-induced cAMP accumulation preincubated for 15 mins followed by WO459 addition and measured after 30 mins by LANCE Ultra cAMP kit based microplate reader analysis; call rule not given here
Type: functional, cell-based

G-protein coupled receptor 52, sequence (Q9Y2T5 whole entry): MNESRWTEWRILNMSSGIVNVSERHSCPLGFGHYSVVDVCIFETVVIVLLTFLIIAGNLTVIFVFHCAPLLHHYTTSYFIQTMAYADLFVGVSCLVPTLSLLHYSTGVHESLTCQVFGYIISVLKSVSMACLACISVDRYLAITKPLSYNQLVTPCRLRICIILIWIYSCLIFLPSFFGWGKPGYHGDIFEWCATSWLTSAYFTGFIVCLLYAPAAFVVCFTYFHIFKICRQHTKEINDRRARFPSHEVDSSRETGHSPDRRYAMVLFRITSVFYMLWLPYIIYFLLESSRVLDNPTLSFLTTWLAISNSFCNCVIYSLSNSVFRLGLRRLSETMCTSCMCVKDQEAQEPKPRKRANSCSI

SMILES: O=C(/C=C/CCc1ccccc1Br)c1ccccc1
- IC50 (read-out: IC50): 1640 nM

SMILES: COc1ccc(C(=O)/C=C/CCc2ccccc2)cc1
- IC50 (read-out: IC50): 3870 nM

SMILES: CC/C=C/C(=O)c1ccccc1
- IC50 (hek293): Not Active

SMILES: O=C(/C=C/CCc1ccccc1)c1ccccc1F
- IC50 (read-out: IC50): 1760 nM

SMILES: Cc1cccc(C)c1C(=O)/C=C/CCc1ccccc1
- IC50 (read-out: IC50): 2820 nM

SMILES: O=C(/C=C/CCc1ccccc1)c1cccc(F)c1
- IC50 (read-out: IC50): 2370 nM

SMILES: O=C(/C=C/CCc1ccccc1)c1ccoc1
- IC50 (read-out: IC50): 1520 nM

SMILES: Cc1ccc(C(=O)/C=C/CCc2ccccc2)cc1
- IC50 (read-out: IC50): 3020 nM

SMILES: O=C(/C=C/CCc1ccccc1)N1CCCCC1
- IC50 (hek293): Not Active

SMILES: O=C(/C=C/CCc1ccccc1)CCc1ccccc1
- IC50 (read-out: IC50): 5450 nM

SMILES: O=C(/C=C/CCc1ccccc1)c1ccc(-c2ccccc2)cc1
- IC50 (read-out: IC50): 7640 nM
